Key:
[1] = target: T1, Trifunctional purine biosynthetic protein adenosine-3 (Homo sapiens, UniProt P22102); assay: Inhibition of human glycinamide ribonucleotide transformylase
T1 sequence (P22102 whole entry): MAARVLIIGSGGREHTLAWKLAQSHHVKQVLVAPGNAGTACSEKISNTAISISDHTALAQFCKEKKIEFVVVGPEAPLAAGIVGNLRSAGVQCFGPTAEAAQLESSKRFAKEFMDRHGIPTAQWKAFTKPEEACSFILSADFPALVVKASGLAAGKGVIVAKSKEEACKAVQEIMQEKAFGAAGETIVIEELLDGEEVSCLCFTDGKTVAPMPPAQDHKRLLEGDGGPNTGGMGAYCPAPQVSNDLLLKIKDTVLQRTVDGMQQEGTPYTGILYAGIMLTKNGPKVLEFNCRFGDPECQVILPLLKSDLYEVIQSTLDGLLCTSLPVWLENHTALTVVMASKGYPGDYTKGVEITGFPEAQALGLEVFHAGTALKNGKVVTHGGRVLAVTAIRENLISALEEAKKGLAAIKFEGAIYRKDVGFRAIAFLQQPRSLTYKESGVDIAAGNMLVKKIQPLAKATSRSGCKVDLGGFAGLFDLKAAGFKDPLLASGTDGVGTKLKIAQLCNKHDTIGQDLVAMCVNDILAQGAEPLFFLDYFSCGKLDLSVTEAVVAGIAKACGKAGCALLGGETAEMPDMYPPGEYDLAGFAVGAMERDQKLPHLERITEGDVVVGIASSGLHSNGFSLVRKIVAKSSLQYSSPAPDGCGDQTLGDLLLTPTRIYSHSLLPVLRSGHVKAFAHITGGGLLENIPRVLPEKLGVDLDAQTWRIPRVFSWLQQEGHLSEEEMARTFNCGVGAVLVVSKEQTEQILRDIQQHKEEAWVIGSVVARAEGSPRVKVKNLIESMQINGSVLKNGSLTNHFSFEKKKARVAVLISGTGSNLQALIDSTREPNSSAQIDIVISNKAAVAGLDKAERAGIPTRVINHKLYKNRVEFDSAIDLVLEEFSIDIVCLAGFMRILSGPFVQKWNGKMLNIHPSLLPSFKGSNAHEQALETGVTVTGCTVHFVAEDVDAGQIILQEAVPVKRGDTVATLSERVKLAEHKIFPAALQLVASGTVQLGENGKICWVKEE

Platelet = assay: Antithrombotic activity assessed as inhibition of alpha-thrombin-induced human platelet aggregation; type: functional, cell-based
[2] = Selectivity for human alpha-thrombin over plasmin
[3] = Selectivity for human alpha-thrombin over bovine trypsin
[4] = Selectivity for human alpha-thrombin over tissue plasminogen activator
[5] = Selectivity for human alpha-thrombin over uPA
[6] = Selectivity for human alpha-thrombin over factor 10a
[7] = Inhibition of human beta-tryptase
[8] = Tmax in rat at 3 mg/kg, po; type: ADME, organism-based; set-up: dose 3 mg/kg, route oral; conditions: in vivo
Hamster = assay: Efficacy in po dosed hamster acute lung injury model; type: functional; conditions: Cricetinae
[9] = Oral bioavailability in rat at 3 mg/kg; type: ADME, organism-based; conditions: in vivo
[10] = Inhibition of calpain 1 at 10 uM
Canis familiaris = assay: Antithrombotic activity in iv dosed dog areteriovenous shunt model assessed as inhibition of thrombus accumulation; type: functional; conditions: Canis lupus familiaris
Trypsin = Trypsin (Homo sapiens, UniProt P07477+P07478+P35030); assay: Inhibition of human trypsin at 100 uM; type: protein assay
Coagulation factor XII = Coagulation factor XII (Homo sapiens, UniProt P00748); assay: Inhibition of factor 12a
Plasma kallikrein = Plasma kallikrein (Homo sapiens, UniProt P03952); assay: Inhibition of kallikrein
[11] = Selectivity for rat FAAH over lipoprotein lipase
[12] = Selectivity for rat FAAH over carboxylesterase 1 lipase
[13] = target: T2, Fatty-acid amide hydrolase 1 (Rattus norvegicus, UniProt P97612)
T2 sequence (P97612 whole entry): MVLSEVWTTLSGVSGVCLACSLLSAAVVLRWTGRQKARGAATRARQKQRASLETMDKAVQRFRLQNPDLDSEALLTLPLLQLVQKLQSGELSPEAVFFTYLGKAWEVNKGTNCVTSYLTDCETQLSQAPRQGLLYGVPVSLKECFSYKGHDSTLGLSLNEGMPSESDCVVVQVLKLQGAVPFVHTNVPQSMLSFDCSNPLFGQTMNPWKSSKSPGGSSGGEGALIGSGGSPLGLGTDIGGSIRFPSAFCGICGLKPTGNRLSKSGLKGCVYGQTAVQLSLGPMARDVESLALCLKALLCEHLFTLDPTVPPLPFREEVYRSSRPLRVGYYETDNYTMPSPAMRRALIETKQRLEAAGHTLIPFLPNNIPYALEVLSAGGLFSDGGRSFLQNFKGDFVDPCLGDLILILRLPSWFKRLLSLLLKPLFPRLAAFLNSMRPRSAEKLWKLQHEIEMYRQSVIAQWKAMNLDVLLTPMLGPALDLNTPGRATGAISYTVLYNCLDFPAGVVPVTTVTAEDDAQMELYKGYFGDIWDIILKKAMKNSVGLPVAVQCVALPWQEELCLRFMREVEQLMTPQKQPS

[14] = Selectivity for rat FAAH over monoacylglycerol lipase
[15] = Selectivity for rat FAAH over triacylglycerol hydrolase
[16] = target: T3, Fatty-acid amide hydrolase 1 (Homo sapiens, UniProt O00519); assay: Inhibition of human recombinant FAAH
T3 sequence (O00519 whole entry): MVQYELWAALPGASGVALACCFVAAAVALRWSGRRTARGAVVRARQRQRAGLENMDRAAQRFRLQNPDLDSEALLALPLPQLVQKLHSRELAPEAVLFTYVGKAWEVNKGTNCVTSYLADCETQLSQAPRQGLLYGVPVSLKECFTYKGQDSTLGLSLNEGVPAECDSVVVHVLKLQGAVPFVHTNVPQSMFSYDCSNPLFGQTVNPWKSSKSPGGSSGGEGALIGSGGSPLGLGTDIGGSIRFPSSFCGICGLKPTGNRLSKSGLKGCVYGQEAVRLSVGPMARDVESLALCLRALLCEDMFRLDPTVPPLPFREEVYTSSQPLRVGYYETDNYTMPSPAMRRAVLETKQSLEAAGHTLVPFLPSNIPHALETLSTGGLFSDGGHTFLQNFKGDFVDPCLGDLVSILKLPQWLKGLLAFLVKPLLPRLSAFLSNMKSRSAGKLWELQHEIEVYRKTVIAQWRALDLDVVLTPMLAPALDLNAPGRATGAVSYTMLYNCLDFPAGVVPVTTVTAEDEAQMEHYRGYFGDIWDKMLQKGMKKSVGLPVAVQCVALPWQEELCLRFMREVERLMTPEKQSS

[17] = Inhibition of Staphylococcus aureus methionine aminopeptidase
Homo sapiens [18] = species on record: Homo sapiens; assay: Selectivity for human alpha-thrombin over human trypsin
Homo sapiens [19] = species on record: Homo sapiens; assay: Selectivity for human beta-tryptase over human alpha thrombin
[20] = Inhibition of Trypanosoma cruzi prolyl endopeptidase Tc80

Sequence of Plasma kallikrein (P03952 20-390 limits assumed): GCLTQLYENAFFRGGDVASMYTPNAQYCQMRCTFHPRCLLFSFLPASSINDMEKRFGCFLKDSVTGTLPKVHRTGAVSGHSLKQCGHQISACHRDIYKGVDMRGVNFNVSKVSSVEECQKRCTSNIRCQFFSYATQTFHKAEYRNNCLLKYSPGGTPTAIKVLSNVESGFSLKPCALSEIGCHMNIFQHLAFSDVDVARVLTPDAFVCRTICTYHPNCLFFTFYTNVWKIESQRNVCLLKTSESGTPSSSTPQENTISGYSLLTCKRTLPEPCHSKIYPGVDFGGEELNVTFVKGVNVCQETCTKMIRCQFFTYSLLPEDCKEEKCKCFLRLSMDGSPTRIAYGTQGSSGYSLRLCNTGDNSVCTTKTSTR
Sequence of Plasma kallikrein (P03952 391-638 limits assumed): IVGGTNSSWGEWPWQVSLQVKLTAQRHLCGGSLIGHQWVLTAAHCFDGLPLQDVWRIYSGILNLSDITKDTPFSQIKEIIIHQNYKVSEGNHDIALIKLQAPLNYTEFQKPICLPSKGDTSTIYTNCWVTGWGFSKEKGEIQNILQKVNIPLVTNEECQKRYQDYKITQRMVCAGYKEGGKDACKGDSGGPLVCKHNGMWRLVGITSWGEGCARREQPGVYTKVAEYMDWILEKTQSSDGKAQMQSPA
Sequence of Coagulation factor XII (P00748 20-372 limits assumed): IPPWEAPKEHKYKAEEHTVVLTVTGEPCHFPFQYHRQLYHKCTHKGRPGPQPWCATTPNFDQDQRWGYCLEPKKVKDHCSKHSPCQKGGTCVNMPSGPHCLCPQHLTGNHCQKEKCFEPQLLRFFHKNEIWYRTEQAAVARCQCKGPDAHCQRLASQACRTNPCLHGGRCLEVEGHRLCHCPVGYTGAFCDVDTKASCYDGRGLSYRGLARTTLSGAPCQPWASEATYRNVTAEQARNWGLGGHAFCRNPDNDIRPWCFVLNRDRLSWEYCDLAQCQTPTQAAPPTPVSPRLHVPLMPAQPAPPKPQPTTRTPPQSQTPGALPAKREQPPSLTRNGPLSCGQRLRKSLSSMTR
Sequence of Coagulation factor XII (P00748 373-615 limits assumed): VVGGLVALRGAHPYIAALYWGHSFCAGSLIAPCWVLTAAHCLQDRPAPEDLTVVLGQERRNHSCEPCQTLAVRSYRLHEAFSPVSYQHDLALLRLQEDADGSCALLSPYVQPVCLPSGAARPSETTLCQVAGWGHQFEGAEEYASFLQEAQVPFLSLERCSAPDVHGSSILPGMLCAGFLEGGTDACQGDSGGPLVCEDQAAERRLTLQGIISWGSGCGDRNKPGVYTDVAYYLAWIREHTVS

For `Nc1nc(N)c(CCCC(C(=O)c2nc3ccccc3o2)c2ccc(C(=O)N[C@@H](CCC(=O)O)C(=O)O)cc2)c(=O)[nH]1` (some centres not stated), the Ki [1] was 0.6 µM.
With `CN[C@H](Cc1ccccc1)C(=O)N1CCC[C@H]1C(=O)N[C@@H](CCCN=C(N)N)C(=O)c1nc2ccccc2s1` the IC50 (Platelet) was 0.03 µM, the Selectivity ratio [2] was 12000 and the Ratio Ki [3] was 15. For the same compound, the Selectivity ratio [4] was 23000, the Selectivity ratio [5] was 23000 and the Selectivity ratio [6] was 2400. The Ki [7] was 0.0065 µM.
For `CC(C)C(NC(=O)Cn1c(-c2ccccc2)ncc(N)c1=O)C(=O)c1nnc(C(C)(C)C)o1` (racemic), the Tmax [8] was 36 min, the ED50 (Hamster) was 5.1 mg/kg and the bioavailability [9] was 50%.
In the case of `CC(C)C[C@H](NC(=O)OCc1ccccc1)C(=O)N[C@@H](CC(C)C)C(=O)N[C@@H](Cc1ccccc1)C(=O)c1nccs1`, the inhibition [10] is reported as 54%.
Work on `Nc1nc(N)c(CCCC(c2ccc(C(=O)N[C@@H](CCC(=O)O)C(=O)O)cc2)C(O)c2nc3ccccc3o2)c(=O)[nH]1` (some centres not stated) yielded a Ki [1] of 1.8 µM.
For `CN[C@H](Cc1ccccc1)C(=O)N1CCC[C@H]1C(=O)N[C@@H](CCCNC(=N)N)C(=O)c1nc2ccc(C(=O)O)cc2s1`, the IC50 (Platelet) was 0.03 µM and the ED50 (Canis familiaris) was 0.1 mg/kg.
Work on `N=C(N)N1CCC[C@@H](C[C@H](NC(=O)CN2C(=O)CN(CCCc3ccccc3)C(=O)[C@@H]2Cc2ccccc2)C(=O)c2nccs2)C1` yielded an inhibition (Trypsin) of 80%.
With `NC(N)=NCCC[C@H](NC(=O)CNC(=O)[C@@H](CCCN=C(N)N)NS(=O)(=O)Cc1ccccc1)C(=O)c1nccs1` the IC50 (Coagulation factor XII) was 0.05 µM and the IC50 (Plasma kallikrein) was 0.014 µM.
Compound `CC(C)C[C@H](NC(=O)OC(C)(C)C)C(=O)N[C@@H](CC(C)C)C(=O)c1ncc[nH]1` has an inhibition [10] of 77%.
Compound `O=C(CCCc1ccccc1)c1nc2ncccc2o1` has a Selectivity ratio [11] greater than 10000, a Selectivity ratio [12] greater than 10000 and a Ki [13] of 0.0069 µM. For the same compound, the Selectivity ratio [14] was greater than 10000 and the Selectivity ratio [15] was 10.
Compound `N#Cc1cnc(C(=O)CCc2ccc(-c3ccccc3)cc2)o1` has a Ki [16] of 0.00026 µM and a Ki [13] of 0.0002 µM.
With `CSCCC(N)C(=O)c1nccs1` (racemic) the IC50 [17] was 19 µM.
For `CCOC(=O)N[C@@H](CCCCN)C(=O)c1noc(Cc2ccc(C(=O)NC3Cc4ccccc4C3)cc2)n1`, the Selectivity ratio (Homo sapiens [18]) was greater than 50, the Selectivity ratio [6] was greater than 1000 and the Ki [7] was 0.003 µM. It also gave a Selectivity ratio (Homo sapiens [19]) greater than 1000.
Compound `CC(C)C[C@H](NC(=O)OCc1ccccc1)C(=O)NCC(=O)N1CCC[C@H]1C(=O)c1nc2ccccc2s1` has an IC50 [20] of 0.2 µM.

Source: ChEMBL document CHEMBL1143211, “Inhibitors of proteases and amide hydrolases that employ an alpha-ketoheterocycle as a key enabling functionality” (Bioorg Med Chem, 2008)
